Experimental data taken from US5159080A, “Indole compounds, a process for their preparation, and pharmaceutical compositions containing them” (Madaus AG, priority 1988, dated 1992).
Read-outs that look alike come from different tables or passages of the source.

Legend:
[1] = Change of heart frequency and average blood pressure in narcotized rats (maximum effect over 2 hours); format: in vivo; details: Rattus norvegicus, iv, maximum effect over 2 h, hemi-tartrate; for change in vivo at 5 mg/kg: 5 mg/kg i.v.; for change in vivo at 10 mg/kg: 10 mg/kg i.v.; for change in vivo at 2 mg/kg: 2 mg/kg i.v.; for change in vivo at 20 mg/kg: 20 mg/kg i.v.; for change in vivo at 1 mg/kg: 1 mg/kg i.v.
guinea pig left auricles = experiment: Isolated left auricles stimulated with 1 Hz, inotropic effect; details: Cavia porcellus, read-out: Maximum effect in % of initial value, LEFT AURICLE INTROPIC; for Emax at 0.5 µg/mL: 0.5 μg/ml; for Emax at 2 µg/mL: 2.0 μg/ml; for Emax at 4 µg/mL: 4.0 μg/ml; for Emax at 10 µg/mL: 10.0 μg/ml; for Emax at 20 µg/mL: 20.0 μg/ml
Description: (§1) The test process employed is described, inter alia, in: Staff of the Department of Pharmacology, University of Edinburgh (1970): Pharmacological Experiments on Isolated Preparation, Churchill Livingston, Edinburgh, London and New York, page 112.
(§2) Animals having a body weight of about 500 g, were used and were divided into groups of 4 animals each. The compounds to be tested were dissolved in tyrode solution/sodium chloride solution 50:50 v/v and the desired concentration adjusted in the bath liquid. The experiment was carried out in the known manner.

[2] = test system: guinea pig right auricles; experiment: Isolated, spontaneously beating right auricles, chronotropic effect; details: Cavia porcellus, read-out: Maximum effect in % of initial value, RIGHT AURICLE CHRONOTROPIC; for Emax at 2 µg/mL: 2.0 μg/ml; for Emax at 4 µg/mL: 4.0 μg/ml; for Emax at 10 µg/mL: 10.0 μg/ml; for Emax at 20 µg/mL: 20.0 μg/ml
Description: as §1, §2

[3] = read-out: BLOOD PRESSURE CHANGE AVERAGE PRESSURE (%)
[4] = read-out: CHANGE OF HEART FREQUENCY (%)

SMILES | change in vivo at 5 mg/kg [1, 3] [%] | change in vivo at 5 mg/kg [1, 4] [%] | change in vivo at 10 mg/kg [1, 3] [%] | Emax at 0.5 µg/mL (guinea pig left auricles) [%] | Emax at 2 µg/mL (guinea pig left auricles) [%] | Emax at 4 µg/mL (guinea pig left auricles) [%] | Emax at 10 µg/mL (guinea pig left auricles) [%] | Emax at 0.5 µg/mL ([2]; 0.5 μg/ml) [%] | Emax at 2 µg/mL [2] [%] | Emax at 4 µg/mL [2] [%] | Emax at 10 µg/mL [2] [%] | change in vivo at 10 mg/kg [1, 4] [%] | change in vivo at 2 mg/kg [1, 3] [%] | other results
Cc1ccc2[nH]c3c(c2c1)C[C@@H]1CN(C)CC[C@@H]1CC3=O (relative stereo) [SI-WG 379] | -19.2 | -17.4 | -22 | 8 | 24 | 24 | 23 | -14 | -35 | -46 | -81 | – | – | –
CN1CC[C@@H]2CC(=O)c3[nH]c4ccc(Br)cc4c3C[C@@H]2C1 (relative stereo) [SI-WG 399] | – | -6.6 | – | – | 25 | 13 | – | – | -43 | -66 | -83 | -12.1 | – | inhibition at 0.5 µg/mL ([2]; 0.5 μg/ml): 22%
CN1CC[C@@H]2CC(=O)c3[nH]c4ccc(F)cc4c3C[C@@H]2C1 (relative stereo) [SI-WG 419] | -21.4 | -12.1 | -26.7 | 6 | 6 | -7 | -27 | -18 | -30 | -42 | -80 | -22.8 | -10.6 | change in vivo at 2 mg/kg [1, 4]: -7.5%
O=C1C[C@H]2CCNC[C@H]2Cc2c1[nH]c1ccccc21 (relative stereo) [SI-WG 422] | – | – | – | -4.2 | -12.2 | -14.9 | – | -6.7 | -19.3 | -36.1 | – | -12.8 | – | change in vivo at 20 mg/kg [1, 3]: 21.8%; change in vivo at 20 mg/kg [1, 4]: -15.5%
COc1ccc2[nH]c3c(c2c1)C[C@@H]1CN(C)CC[C@@H]1CC3=O (relative stereo) [SI-WG 449] | -10 | -12 | -22 | – | 16 | – | 23 | – | -19 | – | -40 | -17 | -16 | Emax at 20 µg/mL (guinea pig left auricles): 20%; Emax at 20 µg/mL [2]: -57%
CC(C)c1ccc2[nH]c3c(c2c1)C[C@@H]1CN(C)CC[C@@H]1CC3=O (relative stereo) [SI-WG 454] | -7.4 | -20.3 | – | – | -7.9 | – | -11.4 | – | -26.4 | – | -65.1 | – | -6.8 | change in vivo at 1 mg/kg [1, 3]: -4.8%; change in vivo at 1 mg/kg [1, 4]: -7.6%; change in vivo at 2 mg/kg [1, 4]: -9%; Emax at 20 µg/mL (guinea pig left auricles): -33.3%; Emax at 20 µg/mL [2]: -72.7%
CCCN1CC[C@@H]2CC(=O)c3[nH]c4ccccc4c3C[C@@H]2C1 (relative stereo) [SI-WG 533] | -20.1 | -9.7 | -22.7 | – | 11.1 | 18.1 | 17 | – | -15.9 | -26 | -34.1 | -17.9 | – | change in vivo at 20 mg/kg [1, 3]: -37.4%; change in vivo at 20 mg/kg [1, 4]: -19.8%
CN1CC[C@@H]2CC(=O)c3[nH]c4cc5c(cc4c3C[C@@H]2C1)OCO5 (relative stereo) [SI-WG 562] | -9.4 | – | -12.4 | – | -4.1 | -6 | -7.4 | – | -11.3 | -15.7 | -31.8 | -6 | -3.4 | –
CN1CC[C@@H]2CC(=O)c3c(c4ccccc4n3C)C[C@@H]2C1 (relative stereo) [SI-WG 591] | – | – | – | – | 11.8 | 12 | 27.4 | – | -20 | -31.9 | -43.9 | – | – | –
